Measured values taken from patent publication US6737383B1, “Herbicidal oxadiazolidines” (priority 1999, dated 2004).

Key:
velvetleaf = experiment: Test B pre/postemergence velvetleaf; type: in vivo, Abutilon theophrasti
Method in brief: (§1)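 Test chemicals in a non-phytotoxic solvent mixture with surfactant were sprayed preemergence onto planted seeds and postemergence onto plants 2 to 18 cm tall (1- to 4-leaf stage). After twelve to sixteen days in a greenhouse, injury was visually rated against untreated controls from 0 (no effect) to 10 (complete control).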

rice = experiment: Test B flood test rice; type: in vivo, Oryza sativa
Method in brief: (§2)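 Flood test on plants grown to the 2-leaf stage; treated plants kept in greenhouse twelve to sixteen days, then visually rated against controls on a 0 (no effect) to 10 (complete control) scale.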

sugar beet = experiment: Test B pre/postemergence sugar beet; type: in vivo, Beta vulgaris
Method in brief: as §1

cocklebur = experiment: Test B pre/postemergence cocklebur; type: in vivo, Xanthium strumarium
Method in brief: as §1

duck salad = experiment: Test B flood test duck salad; type: in vivo, Heteranthera limosa
Method in brief: as §2

crabgrass = experiment: Test B pre/postemergence crabgrass; type: in vivo, Digitaria sanguinalis
Method in brief: as §1

wild oat = experiment: Test B pre/postemergence wild oat; type: in vivo, Avena fatua
Method in brief: as §1

pigweed = experiment: Test B pre/postemergence pigweed; type: in vivo, Amaranthus retroflexus
Method in brief: as §1

morningglory = experiment: Test B pre/postemergence morningglory; type: in vivo, Ipomoea hederacea
Method in brief: as §1

wheat = experiment: Test B pre/postemergence wheat; type: in vivo, Triticum aestivum
Method in brief: as §1

corn = experiment: Test B pre/postemergence corn; type: in vivo, Zea mays
Method in brief: as §1

bamyardgrass = experiment: Test B flood test barnyardgrass; type: in vivo, Echinochloa crus-galli
Method in brief: as §2

purple nutsedge = experiment: Test B pre/postemergence purple nutsedge; type: in vivo, Cyperus rotundus
Method in brief: as §1

giant foxtail = experiment: Test B pre/postemergence giant foxtail; type: in vivo, Setaria faberii
Method in brief: as §1

rape = experiment: Test B pre/postemergence rape; type: in vivo, Brassica napus
Method in brief: as §1

soybean = experiment: Test B pre/postemergence soybean; type: in vivo, Glycine max
Method in brief: as §1

[1] = Postemergence, Rate 125 g/ha, scale 0 to 10, 0 is no effect, 10 is complete control
[2] = Preemergence, Rate 62 g/ha, scale of 0 to 10 where 0 is no effect and 10 is complete control
[3] = Preemergence, Rate 250 g/ha, scale of 0 to 10 where 0 is no effect and 10 is complete control
[4] = Preemergence, Rate 500 g/ha, scale of 0 to 10 where 0 is no effect and 10 is complete control
[5] = Rate 62 g/ha, Postemergence, scale 0 to 10 (0 no effect, 10 complete control)
[6] = Rate 500 g/ha, Postemergence, scale 0 to 10, 0 no effect, 10 complete control
[7] = Rate 62 g/ha, headed Pre-emergence (flood test species), scale 0 to 10 (0 no effect, 10 complete control)
[8] = Rate 125 g/ha, Pre-emergence, flood test species, scale 0 to 10 where 0 is no effect and 10 is complete control
[9] = Rate 250 g/ha, Pre-emergence, flood-test species, scale 0 to 10, 0 is no effect, 10 is complete control
[10] = Rate 500 g/ha, Pre-emergence, flood test species, scale 0 to 10 (0 no effect, 10 complete control)

## CC(C)N(C(=O)n1oc(=O)n(-c2ccc3ccccc3c2)c1=O)c1ccc(F)cc1F [Compound 335]
velvetleaf; [1]
  Plant response rating, Velvetleaf: 0
velvetleaf; [2]
  Velvetleaf plant response rating: 0
velvetleaf; Preemergence, Rate 125 g/ha
  Velvetleaf plant response rating (0 to 10 scale): 0
velvetleaf; [3]
  Velvetleaf plant response rating: 0
velvetleaf; [4]
  Velvetleaf plant response rating: 0
velvetleaf; [5]
  Velvetleaf plant response rating: 0
velvetleaf; [6]
  Plant response rating, Velvetleaf: 0
rice; [7]
  Rice plant response rating: 0
rice; [8]
  Rice plant response rating: 0
rice; [9]
  Rice plant response rating: 0
rice; [10]
  Rice plant response rating: 0
Sugar beet; [1]
  Plant response rating, Sugarbeets: 0
Sugar beet; [2]
  Sugarbeets plant response rating: 0
Sugar beet; Preemergence, Rate 125 g/ha
  Sugarbeets plant response rating (0 to 10 scale): 0
Sugar beet; [3]
  Sugarbeets plant response rating: 0
Sugar beet; [4]
  Sugarbeets plant response rating: 0
Sugar beet; [5]
  Sugarbeets plant response rating: 0
Sugar beet; [6]
  Plant response rating, Sugarbeets: 0
cocklebur; [1]
  Plant response rating, Cocklebur: 0
cocklebur; [2]
  Cocklebur plant response rating: 0
cocklebur; Preemergence, Rate 125 g/ha
  Cocklebur plant response rating (0 to 10 scale): 0
cocklebur; [3]
  Cocklebur plant response rating: 0
cocklebur; [4]
  Cocklebur plant response rating: 0
cocklebur; [5]
  Cocklebur plant response rating: 0
cocklebur; [6]
  Plant response rating, Cocklebur: 0
Duck salad; [7]
  Ducksalad plant response rating: 0
Duck salad; [8]
  Ducksalad plant response rating: 0
Duck salad; [9]
  Ducksalad plant response rating: 0
Duck salad; [10]
  Ducksalad plant response rating: 0
crabgrass; [1]
  Plant response rating, Crabgrass: 0
crabgrass; [2]
  Crabgrass plant response rating: 0
crabgrass; Preemergence, Rate 125 g/ha
  Crabgrass plant response rating (0 to 10 scale): 0
crabgrass; [3]
  Crabgrass plant response rating: 2
crabgrass; [4]
  Crabgrass plant response rating: 2
crabgrass; [5]
  Crabgrass plant response rating: 0
crabgrass; [6]
  Plant response rating, Crabgrass: 0
Wild oat; [1]
  Plant response rating, Wild oats: 0
Wild oat; [2]
  Wild oats plant response rating: 0
Wild oat; Preemergence, Rate 125 g/ha
  Wild oats plant response rating (0 to 10 scale): 0
Wild oat; [3]
  Wild oats plant response rating: 0
Wild oat; [4]
  Wild oats plant response rating: 0
Wild oat; [5]
  Wild oats plant response rating: 0
Wild oat; [6]
  Plant response rating, Wild oats: 0
pigweed; [1]
  Plant response rating, Redroot pigweed: 0
pigweed; [2]
  Redroot pigweed plant response rating: 0
pigweed; Preemergence, Rate 125 g/ha
  Redroot pigweed plant response rating (0 to 10 scale): 0
pigweed; [3]
  Redroot pigweed plant response rating: 0
pigweed; [4]
  Redroot pigweed plant response rating: 0
pigweed; [5]
  Redroot pigweed plant response rating: 0
pigweed; [6]
  Plant response rating, Redroot pigweed: 0
morningglory; [1]
  Plant response rating, Morningglory: 0
morningglory; [2]
  Morningglory plant response rating: 0
morningglory; Preemergence, Rate 125 g/ha
  Morningglory plant response rating (0 to 10 scale): 0
morningglory; [3]
  Morningglory plant response rating: 0
morningglory; [4]
  Morningglory plant response rating: 0
morningglory; [5]
  Morningglory plant response rating: 0
morningglory; [6]
  Plant response rating, Morningglory: 0
wheat; [1]
  Plant response rating, Wheat: 0
wheat; [2]
  Wheat plant response rating: 0
wheat; Preemergence, Rate 125 g/ha
  Wheat plant response rating (0 to 10 scale): 0
wheat; [3]
  Wheat plant response rating: 0
wheat; [4]
  Wheat plant response rating: 0
wheat; [5]
  Wheat plant response rating: 0
wheat; [6]
  Plant response rating, Wheat: 0
corn; [1]
  Plant response rating, Corn: 0
corn; [2]
  Corn plant response rating: 0
corn; Preemergence, Rate 125 g/ha
  Corn plant response rating (0 to 10 scale): 0
corn; [3]
  Corn plant response rating: 0
corn; [4]
  Corn plant response rating: 0
corn; [5]
  Corn plant response rating: 0
corn; [6]
  Plant response rating, Corn: 0
bamyardgrass; [7]
  Barnyardgrass plant response rating: 0
bamyardgrass; [8]
  Barnyardgrass plant response rating: 0
bamyardgrass; [9]
  Barnyardgrass plant response rating: 0
bamyardgrass; [10]
  Barnyardgrass plant response rating: 4
Purple nutsedge; [1]
  Plant response rating, Nutsedge: 0
Purple nutsedge; [2]
  Nutsedge plant response rating: 0
Purple nutsedge; Preemergence, Rate 125 g/ha
  Nutsedge plant response rating (0 to 10 scale): 0
Purple nutsedge; [3]
  Nutsedge plant response rating: 0
Purple nutsedge; [4]
  Nutsedge plant response rating: 0
Purple nutsedge; [5]
  Nutsedge plant response rating: 0
Purple nutsedge; [6]
  Plant response rating, Nutsedge: 0
Giant foxtail; [1]
  Plant response rating, Giant foxtail: 0
Giant foxtail; [2]
  Giant foxtail plant response rating: 2
Giant foxtail; Preemergence, Rate 125 g/ha
  Giant foxtail plant response rating (0 to 10 scale): 4
Giant foxtail; [3]
  Giant foxtail plant response rating: 10
Giant foxtail; [4]
  Giant foxtail plant response rating: 10
Giant foxtail; [5]
  Giant foxtail plant response rating: 0
Giant foxtail; [6]
  Plant response rating, Giant foxtail: 0
rape; [1]
  Plant response rating, Rape: 0
rape; [2]
  Rape plant response rating: 0
rape; Preemergence, Rate 125 g/ha
  Rape plant response rating (0 to 10 scale): 0
rape; [3]
  Rape plant response rating: 0
rape; [4]
  Rape plant response rating: 0
rape; [5]
  Rape plant response rating: 0
rape; [6]
  Plant response rating, Rape: 0
soybean; [1]
  Plant response rating, Soybean: 2
soybean; [2]
  Soybean plant response rating: 0
soybean; Preemergence, Rate 125 g/ha
  Soybean plant response rating (0 to 10 scale): 0
soybean; [3]
  Soybean plant response rating: 0
soybean; [4]
  Soybean plant response rating: 0
soybean; [5]
  Soybean plant response rating: 1
soybean; [6]
  Plant response rating, Soybean: 2

## Cc1c(-n2c(=O)on(C(=O)N(c3ccc(F)cc3)C(C)C)c2=O)ccc2ccccc12 [Compound 338]
velvetleaf; [1]
  Plant response rating, Velvetleaf: 0
velvetleaf; [2]
  Velvetleaf plant response rating: 0
velvetleaf; Preemergence, Rate 125 g/ha
  Velvetleaf plant response rating (0 to 10 scale): 0
velvetleaf; [3]
  Velvetleaf plant response rating: 0
velvetleaf; [4]
  Velvetleaf plant response rating: 0
velvetleaf; [5]
  Velvetleaf plant response rating: 0
velvetleaf; [6]
  Plant response rating, Velvetleaf: 0
rice; [7]
  Rice plant response rating: 0
rice; [8]
  Rice plant response rating: 0
rice; [9]
  Rice plant response rating: 0
rice; [10]
  Rice plant response rating: 0
Sugar beet; [1]
  Plant response rating, Sugarbeets: 0
Sugar beet; [2]
  Sugarbeets plant response rating: 0
Sugar beet; Preemergence, Rate 125 g/ha
  Sugarbeets plant response rating (0 to 10 scale): 0
Sugar beet; [3]
  Sugarbeets plant response rating: 0
Sugar beet; [4]
  Sugarbeets plant response rating: 0
Sugar beet; [5]
  Sugarbeets plant response rating: 0
Sugar beet; [6]
  Plant response rating, Sugarbeets: 0
cocklebur; [1]
  Plant response rating, Cocklebur: 0
cocklebur; [2]
  Cocklebur plant response rating: 0
cocklebur; Preemergence, Rate 125 g/ha
  Cocklebur plant response rating (0 to 10 scale): 0
cocklebur; [3]
  Cocklebur plant response rating: 0
cocklebur; [4]
  Cocklebur plant response rating: 0
cocklebur; [5]
  Cocklebur plant response rating: 0
cocklebur; [6]
  Plant response rating, Cocklebur: 0
Duck salad; [7]
  Ducksalad plant response rating: 0
Duck salad; [8]
  Ducksalad plant response rating: 0
Duck salad; [9]
  Ducksalad plant response rating: 0
Duck salad; [10]
  Ducksalad plant response rating: 0
crabgrass; [1]
  Plant response rating, Crabgrass: 0
crabgrass; [2]
  Crabgrass plant response rating: 0
crabgrass; Preemergence, Rate 125 g/ha
  Crabgrass plant response rating (0 to 10 scale): 0
crabgrass; [3]
  Crabgrass plant response rating: 0
crabgrass; [4]
  Crabgrass plant response rating: 0
crabgrass; [5]
  Crabgrass plant response rating: 0
crabgrass; [6]
  Plant response rating, Crabgrass: 0
Wild oat; [1]
  Plant response rating, Wild oats: 0
Wild oat; [2]
  Wild oats plant response rating: 0
Wild oat; Preemergence, Rate 125 g/ha
  Wild oats plant response rating (0 to 10 scale): 0
Wild oat; [3]
  Wild oats plant response rating: 0
Wild oat; [4]
  Wild oats plant response rating: 0
Wild oat; [5]
  Wild oats plant response rating: 0
Wild oat; [6]
  Plant response rating, Wild oats: 0
pigweed; [1]
  Plant response rating, Redroot pigweed: 0
pigweed; [2]
  Redroot pigweed plant response rating: 0
pigweed; Preemergence, Rate 125 g/ha
  Redroot pigweed plant response rating (0 to 10 scale): 0
pigweed; [3]
  Redroot pigweed plant response rating: 0
pigweed; [4]
  Redroot pigweed plant response rating: 0
pigweed; [5]
  Redroot pigweed plant response rating: 0
pigweed; [6]
  Plant response rating, Redroot pigweed: 0
morningglory; [1]
  Plant response rating, Morningglory: 0
morningglory; [2]
  Morningglory plant response rating: 0
morningglory; Preemergence, Rate 125 g/ha
  Morningglory plant response rating (0 to 10 scale): 0
morningglory; [3]
  Morningglory plant response rating: 0
morningglory; [4]
  Morningglory plant response rating: 0
morningglory; [5]
  Morningglory plant response rating: 0
morningglory; [6]
  Plant response rating, Morningglory: 2
wheat; [1]
  Plant response rating, Wheat: 0
wheat; [2]
  Wheat plant response rating: 0
wheat; Preemergence, Rate 125 g/ha
  Wheat plant response rating (0 to 10 scale): 0
wheat; [3]
  Wheat plant response rating: 0
wheat; [4]
  Wheat plant response rating: 0
wheat; [5]
  Wheat plant response rating: 0
wheat; [6]
  Plant response rating, Wheat: 0
corn; [1]
  Plant response rating, Corn: 0
corn; [2]
  Corn plant response rating: 0
corn; Preemergence, Rate 125 g/ha
  Corn plant response rating (0 to 10 scale): 0
corn; [3]
  Corn plant response rating: 0
corn; [4]
  Corn plant response rating: 0
corn; [5]
  Corn plant response rating: 0
corn; [6]
  Plant response rating, Corn: 0
bamyardgrass; [7]
  Barnyardgrass plant response rating: 0
bamyardgrass; [8]
  Barnyardgrass plant response rating: 0
bamyardgrass; [9]
  Barnyardgrass plant response rating: 0
bamyardgrass; [10]
  Barnyardgrass plant response rating: 9
Purple nutsedge; [1]
  Plant response rating, Nutsedge: 0
Purple nutsedge; [2]
  Nutsedge plant response rating: 0
Purple nutsedge; Preemergence, Rate 125 g/ha
  Nutsedge plant response rating (0 to 10 scale): 0
Purple nutsedge; [3]
  Nutsedge plant response rating: 0
Purple nutsedge; [4]
  Nutsedge plant response rating: 0
Purple nutsedge; [5]
  Nutsedge plant response rating: 0
Purple nutsedge; [6]
  Plant response rating, Nutsedge: 0
Giant foxtail; [1]
  Plant response rating, Giant foxtail: 0
Giant foxtail; [2]
  Giant foxtail plant response rating: 0
Giant foxtail; Preemergence, Rate 125 g/ha
  Giant foxtail plant response rating (0 to 10 scale): 0
Giant foxtail; [3]
  Giant foxtail plant response rating: 0
Giant foxtail; [4]
  Giant foxtail plant response rating: 9
Giant foxtail; [5]
  Giant foxtail plant response rating: 0
Giant foxtail; [6]
  Plant response rating, Giant foxtail: 0
rape; [1]
  Plant response rating, Rape: 0
rape; [2]
  Rape plant response rating: 0
rape; Preemergence, Rate 125 g/ha
  Rape plant response rating (0 to 10 scale): 0
rape; [3]
  Rape plant response rating: 0
rape; [4]
  Rape plant response rating: 0
rape; [5]
  Rape plant response rating: 0
rape; [6]
  Plant response rating, Rape: 0
soybean; [1]
  Plant response rating, Soybean: 1
soybean; [2]
  Soybean plant response rating: 0
soybean; Preemergence, Rate 125 g/ha
  Soybean plant response rating (0 to 10 scale): 0
soybean; [3]
  Soybean plant response rating: 0
soybean; [4]
  Soybean plant response rating: 0
soybean; [5]
  Soybean plant response rating: 1
soybean; [6]
  Plant response rating, Soybean: 2
